pEC50, pIC50: −log10 of the molar value.

Results on one compound are retold here after US12473282B2, “Biphenyl fluorine double bond derivative, preparation method therefor, and pharmaceutical application thereof” (Abbisko Therapeutics Co., Ltd., priority 2020, dated 2025).

A short description of data set [1]: Jurkat reporter gene cellular assay. It is filed as cell-based. The note with it: Homo sapiens; Jurkat/NF-κB-luc/PD1 + Raji-PD-L1 coculture, OKT3 1 μg/mL, 6 hrs, activation fold; read-out: Cell Activity EC50. The method, boiled down:
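Jurkat cells stably expressing human PD-1 and NF-κB-luciferase co-cultured with PD-L1-expressing Raji cells (5×10^4 each/well) under OKT3 (1 μg/mL final) with compound. Raji cells preincubated 20 min; luminescence read 6 h after Jurkat addition. EC50 from non-linear regression of fold activation over DMSO.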

Data set [2] is described as follows: Pharmacokinetic assay in mice. It is filed as in vivo. The settings on record: male, mouse; ICR mice, PO 10 mg/kg, plasma, original compound detected. The procedure:
III. Pharmacokinetic Assay in Mice
The purpose of this study was to study the pharmacokinetic behaviors of some compounds of the present invention, and administration routes were: per oral administration (PO) to ICR mice at a dose of 10 mg/kg.
The compounds used in this test came from the compounds of the specific examples of the present invention.
ICR mice, male, N=3, with the original source of Shanghai Sippr-BK Laboratory Animal Co. Ltd.
2.3 Preparation and Administration of Drug
The compounds were weighed, and dissolved in a solvent of 0.5% SDS+0.5% CMCNa. The mixture solutions were mixed well by shaking and ultrasonic treatment to obtain colorless clear solutions. The solutions were orally administered to nine mice after an overnight fast. The dosage of administration was 10 mg/kg.
1) With about 90 μL/time point, blood was drawn from the submaxillary vein, and heparin sodium was added for anticoagulation. The blood samples were placed onto the ice, and were centrifuged (centrifugation conditions: 8000 r/min, 6 min, 2-8° C.) within 1 hr to obtain plasmas.
2) The time points for blood sampling were at 0 hr, 0.25 hr, 0.5 hr, 1 hr, 2 hrs, 4 hrs, 6 hrs, 8 hrs and 24 hrs after administration. The samples were stored in a refrigerator at −20° C.
3) 40 μL of plasma sample was added to 160 μL of cold acetonitrile containing an internal standard, and the mixture solution was vortexed for 3 min and centrifuged at 11,000 r/min for 5 min.
4) 100 μL of supernate was taken and added to 100 μL of water, and 5 μL of the sample was taken and analyzed by LC/MS/MS.
Only the original compounds were analyzed for the compounds from the examples of the present invention and the reference compound from Example 158 of WO2020011209A1; and both the original compounds and possible products of ester hydrolysis, namely Example 217, were analyzed for the reference compound from Example 216 of WO2020011209A1.

The target in data set [3] is interaction between PD-1 and PD-L1 (Homo sapiens (Human), UniProt Q9NZQ7). The experiment in a line: PD1-PDL1 HTRF binding activity test (Cisbio PD-1/PD-L1 binding assay kit).
Sequence of interaction between PD-1 and PD-L1 (Q9NZQ7 19-238): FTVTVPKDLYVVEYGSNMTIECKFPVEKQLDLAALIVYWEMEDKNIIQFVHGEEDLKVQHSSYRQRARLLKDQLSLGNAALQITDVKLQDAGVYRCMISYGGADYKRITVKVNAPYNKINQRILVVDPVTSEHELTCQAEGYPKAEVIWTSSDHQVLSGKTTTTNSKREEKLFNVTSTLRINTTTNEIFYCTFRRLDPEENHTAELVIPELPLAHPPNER

`COc1cc(/C(F)=C/c2cccc(-c3cccc(NC(=O)c4nc5c(n4C)CCN(CCC46CCC(C(=O)O)(CC4)C6)C5)c3Cl)c2Cl)ncc1CN1CC[C@@](C)(C(=O)O)C1` [Example 75, (R,Z)-1-((6-(2-(3′-(5-(2-(4-carboxybicyclo[2.2.1]heptan-1-yl)ethyl)-1-methyl-4,5,6,7-tetrahydro-1H-imidazo[4,5-c]pyridine-2-carboxamido)-2,2′-dichloro-[1,1′-biphenyl]-3-yl)-1-fluorovinyl)-4-methoxypyridin-3-yl)methyl)-3-methylpyrrolidine-3-carboxylic acid]: in data set [1], the pEC50 was 7.26. In addition, in data set [2], the AUC(0-t) turned out to be 2650 ng·h/mL, the Cmax came to 806 ng/mL, the mean residence time (MRT) is 2.9 h and the Tmax turned out to be 1.8 h. Also, the half-life in data set [2] is 1.8 h. Moreover, the pIC50 in data set [3] was 9.73.
